Assay results as given in patent US20250073235A1, “INHIBITION OF MAST CELL TUMOR NECROSIS FACTOR FOR THERAPEUTIC USE” (The University of Southern Mississippi, priority 2023, published 2025).
“Also recorded” adds a separate entry of the source.

B1: sTNFR1: soluble TNF receptor 1 (Genscript), sequesters secreted TNF (protein, UniProt P19438 30-211, looked up)
extracellular domain: LVPHLGDREKRDSVCPQGKYIHPQNNSICCTKCHKGTYLYNDCPGPGQDTDCRECESGSFTASENHLRHCLSCSKCRKEMGQVEISSCTVDRDTVCGCRKNQYRHYWSENLFQCFNCSLCLNGTVHLSCQEKQNTVCTCHAGFFLRENECVSCSNCKKSLECTKLCLPQIENVKGTEDSGTT
modifications: extracellular domain

Assays:
RBL-2H3 cells [1] = experiment: β-hexosaminidase secretion assay, IgE/TNP-BSA activated mast cells; assay type: cell-based, rat; settings: for β-hexosaminidase secretion (% of total activity in the supernatant), normalized against DMSO: inhibitor added to sensitized RBL-2H3 cells 30 min before TNP-BSA, FIG. 19
Description: (§1) Sub-confluent RBL-2H3 cells (85%) grown on a 6-well plate were sensitized with 0.5 μg/ml anti-TNP IgE (BD Biosciences) and activated by 25 ng/ml TNP^(26)-BSA (Santa-Cruz) in RPMI 1640 (Corning) containing 0.1% BSA as described. The supernatant (around 1 ml) was collected from resting (no exposure to IgE) and activated (IgE and TNP-BSA) cells respectively and centrifuged at 500 g for 5 min at 4° C. to clear any cell debris. In the meantime, the cells attached to the bottom of the 6-well plates were lysed in 1 ml of cell culture medium, RPMI 1640 containing 0.1% BSA and 0.5% Triton X-100 for 5 min at RT. The lysate was centrifuged at 15,000 g for 5 min at 4° C. to clear any Triton-insoluble biomass. The cleared supernatant or lysate was separated into 3 aliquots: 800 μl were lyophilized for TNF assay; 50 μl were stored at −20° C. for serotonin and histamine assays; and the rest was used immediately for β-hexosaminidase assay.
(§2) β-hexosaminidase activity and TNF protein level were measured as commonly used in the art. To quantify histamine with an Enzyme Immunoassay (EIA) kit (EA213/96; Eagle Biosciences), the supernatant and cell lysates were diluted 100-fold in RPMI. Fifty μl of the diluted samples were then subject to acylation reaction and ELISA by following the manufacturer's instructions. To measure the level of serotonin, the supernatant and cell lysates were diluted 1:625 fold with standard buffer (EA630/96; Eagle Biosciences), 20 μl of which were subject to acylation and subsequent ELISA according to the manufacturer's instructions.
(§3) The absolute value for the exocytosis of each mediator (V) was expressed as the percentage of the signal released into the supernatant (MS) relative to the total signal in the supernatant and in the lysate [V=MS/(MS+ML)%]. The value for IgE/allergen-dependent exocytosis was calculated by subtracting the value of the activated samples with the value of the resting samples (VE=VA−VR).
(§4) RBL-2H3 cells and derivatives growing in 6-well plates were sensitized for 3 h with 0.5 μg/mL mouse anti-TNP ([…]) IgE (BD Pharmingen) and stimulated with 25 ng/mL of TNP(26)-BSA (Santa Cruz). β-hexosaminidase activities and TNF levels in the supernatant and the cell lysates were quantified as previously described. […]. Reverse transcription and PCRs RBL-2H3 cells (˜40% confluent) cultured in a 24-well plate were treated with 250 μL of 0.25% Trypsin-EDTA (Gibco) that was subsequently neutralized with 750 μL of complete medium. About […] were collected for RT-qPCR (quantitative PCR) using TaqMan Gene Expression Cells-to-CT Kit (ThermoFisher Scientific) according to the manufacturer's instructions. […]

RBL-2H3 cells [2] = experiment: total TNF protein level (ELISA), IgE/TNP-BSA activated mast cells; assay type: cell-based, rat; settings: for total TNF level, normalized against DMSO: FIG. 19; for overall level of TNF (total TNF protein): 1 hour
Description: as §1, §2
RBL-2H3 cells and derivatives growing in 6-well plates were sensitized for 3 h with 0.5 μg/mL mouse anti-TNP ([…]) IgE (BD Pharmingen) and stimulated with 25 ng/mL of TNP(26)-BSA (Santa Cruz). β-hexosaminidase activities and TNF levels in the supernatant and the cell lysates were quantified as previously described. […]. Reverse transcription and PCRs RBL-2H3 cells (˜40% confluent) cultured in a 24-well plate were treated with 250 μL of 0.25% Trypsin-EDTA (Gibco) that was subsequently neutralized with 750 μL of complete medium. About […] were collected for RT-qPCR (quantitative PCR) using TaqMan Gene Expression Cells-to-CT Kit (ThermoFisher Scientific) according to the manufacturer's instructions. Fluorescently labeled, target-specific probes ((3-actin: Rn00667869_ml; TNFR1: Rn01492348_ml; and TNFR2: Rn00709830_ml) were purchased from Thermofisher Scientific. The Cq values of TNFRs were standardized against that of β-actin utilizing the Bio-Rad CFX Maestro software and then the relative levels of mRNA expression were determined. For electrophoresis, TNFR1 was amplified from cDNA (prepared with the same TaqMan Gene Expression Cells-to-CT Kit described earlier) using […]-3′ (SEQ ID NO: 11) and 5′-[…]-3′ (SEQ ID NO: 12) as forward and reverse primers, whereas TNFR2 was amplified using 5′-[…]-3′ (SEQ ID NO: 13) and 5′-[…]-3′ (SEQ ID NO: 14) as forward and reverse primers. PCR was conducted in a 20 μL mixture containing 1× One Taq Master Mix (NEB) and 200 nM of primers. Where specified, 1 μL of rat universal cDNA (BioChain) was used as positive control.

RBL-2H3 cells [3] = experiment: TNF secretion assay (ELISA), IgE/TNP-BSA activated mast cells; assay type: cell-based, rat; settings: for TNF secretion (% of total TNF in the supernatant), normalized against DMSO: inhibitor added to sensitized RBL-2H3 cells 30 min before TNP-BSA, FIG. 19
Description: as §1, §2, §3, §4

activated mast cells [4] = settings: reference [31]; cited from earlier work
activated mast cells [5] = settings: reference [31]; cited from earlier work; remark: listed apart in the source
[6] = inhibitor added to sensitized RBL-2H3 cells 30 min before TNP-BSA

Molecule | β-hexosaminidase secretion (% of total activity in the supernatant), normalized against DMSO (RBL-2H3 cells [1]) | total TNF level, normalized against DMSO (RBL-2H3 cells [2]; [6]) | TNF secretion (% of total TNF in the supernatant), normalized against DMSO (RBL-2H3 cells [3]) | further results
Cc1cc(NC(=O)c2cccc(NC(=O)/C=C/CN(C)C)c2)ccc1Nc1nccc(-c2cccnc2)n1 [JNK-IN-8] | without impacting | diminished TNF level drastically | without impacting | 
Cc1ccc(-n2nc(C(C)(C)C)cc2NC(=O)Nc2ccc(OCCN3CCOCC3)c3ccccc23)cc1 [Doramapimod/BIRB 796, Doramapimod] | did not seem to affect exocytosis | did not seem to affect exocytosis or significantly reduce TNF proliferation | did not seem to affect exocytosis | 
CN(C)CCC=C1c2ccccc2CCc2ccccc21 [amitriptyline] |  |  |  | histamine release (activated mast cells [4]): specifically inhibit; serotonin release (activated mast cells [5]): without any influence
CC#CCOc1ccc(S(=O)(=O)CC(c2ccc(CNS(C)(=O)=O)cc2)N(O)C=O)cc1 (centres unmarked) [KP-457] |  |  |  | exocytosis of β-hexosaminidase (RBL-2H3 cells [1]; sensitized RBL-2H3 cells, inhibitor added along with TNP-BSA, concentrations between 0.3 M and 10 μM, 1 hour, FIG. 18A): did not seem to affect; overall level of TNF (total TNF protein) (RBL-2H3 cells [2]; allergen-triggered RBL-2H3 cells, inhibitor added along with TNP-BSA, FIG. 18C): inhibited the overall level of TNF; also recorded: TNF production is diminished; amount of sTNF protein released into the supernatant (RBL-2H3 cells [3]; sensitized RBL-2H3 cells, inhibitor added along with TNP-BSA, concentrations between 0.3 M and 10 μM, 1 hour, FIG. 18B): significantly reduced
CCOc1cc(C(=O)N2CCC(N3CCN(C)CC3)CC2)ccc1Nc1ncc2c(n1)N(S(C)(=O)=O)c1ccccc1C(=O)N2C [AX-15836] |  |  |  | reduction in total TNF level (RBL-2H3 cells [2]; inhibitor added to sensitized RBL-2H3 cells 30 min before TNP-BSA, statistically significant, FIG. 19B): 10%
Cn1nccc1Nc1nccc(-c2ccn([C@H](CO)c3ccc(Cl)c(F)c3)c(=O)c2)n1 [Ravoxertinib/GDC-0994, Ravoxertinib] | inhibited | inhibited | inhibited | 
B1 |  |  |  | overall level of TNF (total TNF protein) (RBL-2H3 cells [2]; sensitized RBL-2H3 cells incubated with sTNFR1 along with TNP-BSA, FIG. 17A): inhibited the overall level of TNF in a concentration dependent fashion; overall level of TNF (total TNF protein) (RBL-2H3 cells [2]; sensitized RBL-2H3 cells incubated with sTNFR1 along with TNP-BSA, FIG. 17A, listed as soluble TNFR1): inhibits antigen-elicited TNF production in a dosage-dependent fashion
